Results published in patent publication US20100160369A1, “S1P1 Agonists and Methods of Making And Using” (EXELIXIS, INC., priority 2008, published 2010).

How the values were obtained:
Format in all cases: cell-based
S1P1 [1] = target: T1, S1P1 (Homo sapiens, UniProt P21453); experiment: Tango β-arrestin Recruitment Assay in U2OS cells (Assay 2b); set-up: linker with TEV protease (N1a) cleavage site (C); settings: Tango β-arrestin Recruitment Assay, read-out: Assay 2b EC50
Excerpt: (§1) For the Tango™ β-arrestin recruitment assay, the cytoplasmic C-terminus of S1P1 is tethered to the tTA transcriptional activator with a linker that contains a cleavage site for the N1a protease from tobacco etch virus (TEV protease). The C-terminus of the human β-arrestin2 protein is fused to TEV protease. Binding of an agonist recruits the β-arrestin-TEV fusion protein to the receptor resulting in cleavage of the linker and release of tTA to enter the nucleus and subsequently activate a tTA-dependent luciferase reporter gene.
Alternatively, U2OS cells expressing the reporter gene and S1P1 (Invitrogen) were added to the wells of a 384-well white opaque bottom assay plate (PerkinElmer) at […] per well. The cells were serum starved for 48 h in Freestyle medium (Invitrogen). Test compounds were tested at maximum concentrations of 1 μM for the agonist assay. Compounds were diluted in DMSO (10 concentration points, 3-fold each) and added to the assay plate at a 1% final DMSO concentration. The efficacy control was 1 μM S1P (Avanti). For each compound, there were duplicate assay plates and each assay plate had duplicate wells per concentration point. The plate was incubated overnight at 37° C. The GeneBLAzer β-lactamase assay reagent (Invitrogen) was added and the plates were incubated for an additional 2 h at room temperature. Fluorescence was measured using an EnVision plate reader (PerkinElmer, Waltham, Mass.) at an excitation wavelength of 409 nm and emission wavelengths of 460 nm and 530 nm. The emission intensity at each wavelength was background subtracted against wells containing medium only and the F460 nm/F530 nm ratio determined for each concentration of the test compounds. Percent activity was calculated as [(test compound ratio−DMSO ratio)/(positive control ratio−DMSO ratio)*100], where the positive control and DMSO ratios are from cells incubated with the efficacy control 1 μM S1P and 1% DMSO, respectively. The percent activities were plotted against compound concentration to determine EC50 using XLFit (IDBS).
(§2) Assay 1 is the CNG cAMP Assay as described in Biological Example 1. Assay 2a and 2b are the Tango™ β-arrestin Recruitment Assay in HEK293 and U2OS cells, respectively, as described in Biological Example 2. Assay 3a is the hS1P1R GTPγS Binding Assay as described in Biological Example 3. Assay 3b is the GTP-Eu Binding Assay as described in Biological Example 3. EC50's were measured unless otherwise noted. […] In the table, “nt” means the Compound was not tested and “no” means the compound was tested but had no measurable activity under the assay conditions employed.
Target sequence in this assay (P21453 whole entry, the tested form may be a part): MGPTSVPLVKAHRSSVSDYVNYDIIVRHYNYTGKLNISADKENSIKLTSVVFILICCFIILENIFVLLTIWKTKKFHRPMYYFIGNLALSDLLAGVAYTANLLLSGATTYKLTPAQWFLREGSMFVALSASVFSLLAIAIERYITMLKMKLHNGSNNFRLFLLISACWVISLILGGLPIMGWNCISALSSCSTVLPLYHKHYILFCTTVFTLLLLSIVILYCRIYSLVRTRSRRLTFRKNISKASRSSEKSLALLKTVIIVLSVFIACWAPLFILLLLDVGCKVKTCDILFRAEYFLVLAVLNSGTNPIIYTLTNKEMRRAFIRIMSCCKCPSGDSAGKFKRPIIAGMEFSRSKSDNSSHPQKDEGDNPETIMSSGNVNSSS
Target sequence in this assay (P32121 whole entry partner, the tested form may be a part): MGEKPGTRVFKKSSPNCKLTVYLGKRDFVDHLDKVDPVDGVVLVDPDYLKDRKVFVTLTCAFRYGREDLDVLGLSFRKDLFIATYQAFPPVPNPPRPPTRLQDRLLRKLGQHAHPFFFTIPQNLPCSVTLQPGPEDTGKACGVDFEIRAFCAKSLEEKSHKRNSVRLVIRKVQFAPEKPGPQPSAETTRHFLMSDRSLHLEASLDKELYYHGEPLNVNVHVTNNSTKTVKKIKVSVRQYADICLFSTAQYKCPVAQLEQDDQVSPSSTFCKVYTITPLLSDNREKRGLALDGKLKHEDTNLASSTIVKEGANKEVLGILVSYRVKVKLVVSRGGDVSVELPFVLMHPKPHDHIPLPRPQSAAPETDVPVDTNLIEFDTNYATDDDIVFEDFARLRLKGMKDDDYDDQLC

S1P1 [2] = target: T1, S1P1; experiment: Tango β-arrestin Recruitment Assay in HEK293 cells (Assay 2a); set-up: linker with TEV protease (N1a) cleavage site (C); host or cells: HEK293, transiently transfected; settings: Tango β-arrestin Recruitment Assay, read-out: Assay 2a EC50
Excerpt: as §1
Target sequence in this assay (P21453 whole entry, the tested form may be a part): as the sequence (P21453 whole entry, the tested form may be a part) above
Target sequence in this assay (P32121 whole entry partner, the tested form may be a part): as the sequence (P32121 whole entry partner, the tested form may be a part) above
Frozen HEK293 cells transiently transfected with receptor cDNAs for S1P1 (Invitrogen) were thawed and suspended in 10 mL of Pro293a-CDM culture medium (Invitrogen) supplemented with 4 mM L-Glutamine (Invitrogen), 1× Pen/Strep (100 units/mL penicillin and 100 μg/mL streptomycin, Invitrogen) and 0.1% fatty acid free BSA (Sigma-Aldrich). Cells were added to the wells of a 384-well white opaque bottom assay plate (PerkinElmer) at 3,000-6,000 cells per well and the plate was incubated for approximately 4 h in a 37° C. incubator. Test compounds were tested at maximum concentrations of 10 μM for the agonist assays. Compounds were diluted in DMSO (10 concentration points, 3-fold each) and added to the assay plate at a 1% final DMSO concentration. For each compound, there were duplicate assay plates and each assay plate had duplicate wells per concentration point. The plate was incubated at 37° C. for 30 min. The efficacy control was 5 μM S1P (Avanti). Following agonist addition, the assay plates were incubated in a 37° C. incubator for 16-18 h. Luciferase assay reagent was added and luminescence measured in an EnVision plate reader (PerkinElmer). To determine agonist activity, percent activity was calculated as [(test compound−background)/(positive control−background)* 100], where background is the luminescence of the DMSO alone control and the positive control is the luminescence from cells incubated with the efficacy control 5 μM S1P. The percent activities were plotted against compound concentration to determine EC50 using XLFit (IDBS).
as §2

S1P1 [3] = target: T1, S1P1; experiment: CNG cAMP Assay (Assay 1); set-up: host or cells: HEK293 cells expressing the CNG channel; settings: read-out: Assay 1 EC50
Summary of the method: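 HEK293 cells expressing CNG channel and S1P1, membrane-potential dye loaded; compounds (top 10 μM, 10-point 3-fold, 1.8% DMSO) added with 25 μM Ro 20-1724, 500 nM NECA and 10 nM S1P for 90 min. T90/T0 fluorescence (Ex 350/Em 590 nm) normalised to NECA-alone vs DMSO; EC50 fitted.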
Target sequence in this assay (P21453 whole entry, the tested form may be a part): as the sequence (P21453 whole entry, the tested form may be a part) above

EC50 (S1P1 [1])	EC50 (S1P1 [2])	EC50 (S1P1 [3])	SMILES
≤ 100 nM			CC(O)COc1cc(Cl)c(-c2nnc(-c3cn4cc(C(F)(F)F)cc(Cl)c4n3)o2)cc1Cl (centres unmarked) [Entry 4]
≤ 100 nM			O=C(O)CC(=O)COc1cc(Cl)c(-c2noc(-c3cn4cc(C(F)(F)F)cc(Cl)c4n3)n2)cc1Cl [Entry 5]
≤ 100 nM			O=P(O)(O)OC(CO)COc1cc(Cl)c(-c2noc(-c3cn4cc(C(F)(F)F)cc(Cl)c4n3)n2)cc1Cl (centres unmarked) [Entry 9]
≤ 100 nM			CS(=O)(=O)COc1cc(Cl)c(-c2noc(-c3cn4cc(C(F)(F)F)cc(Cl)c4n3)n2)cc1Cl [Entry 12]
≤ 100 nM			CC(O)COc1cc(Cl)c(-c2nnc(-c3cn4cc(C(F)(F)F)cc(Cl)c4n3)s2)cc1Cl (centres unmarked) [Entry 13]
≤ 100 nM			C[C@@H](COc1cc(Cl)c(-c2noc(-c3cn4cc(C(F)(F)F)cc(Cl)c4n3)n2)cc1Cl)OP(=O)(O)O [Entry 14]
≤ 100 nM			NC(COc1cc(Cl)c(-c2noc(-c3cn4cc(C(F)(F)F)cc(Cl)c4n3)n2)cc1Cl)COP(=O)(O)O (centres unmarked) [Entry 15]
	100 to 500 nM	≤ 100 nM	CC(Cc1ccc(-c2noc(-c3cn4cc(C(F)(F)F)cc(Cl)c4n3)n2)c(Cl)c1)C(=O)O (centres unmarked) [Example 171, 3-(3-chloro-4-{5-[8-chloro-6-(trifluoromethyl)imidazo[1,2-a]pyridin-2-yl]-1,2,4-oxadiazol-3-yl}phenyl)-2-methylpropanoic acid]
	100 to 500 nM	≤ 100 nM	Cc1cc(CC(C)C(=O)O)ccc1-c1noc(-c2cn3cc(C(F)(F)F)cc(Br)c3n2)n1 (centres unmarked) [Example 173, 3-(4-{5-[8-bromo-6-(trifluoromethyl)imidazo[1,2-a]pyridin-2-yl]-1,2,4-oxadiazol-3-yl}-3-methylphenyl)-2-methylpropanoic acid]
	100 to 500 nM	≤ 100 nM	Cc1cc(CC(C)C(=O)O)ccc1-c1noc(-c2cn3cc(C(F)(F)F)cc(Cl)c3n2)n1 (centres unmarked) [Example 180, 3-(4-{5-[8-chloro-6-(trifluoromethyl)imidazo[1,2-a]pyridin-2-yl]-1,2,4-oxadiazol-3-yl}-3-methylphenyl)-2-methylpropanoic acid]
	100 to 500 nM	≤ 100 nM	Cc1cc(C(C)CC(=O)O)ccc1-c1noc(-c2cn3cc(C(F)(F)F)cc(Cl)c3n2)n1 (centres unmarked) [Example 181, 3-(4-{5-[8-chloro-6-(trifluoromethyl)imidazo[1,2-a]pyridin-2-yl]-1,2,4-oxadiazol-3-yl}-3-methylphenyl)butanoic acid]
	≤ 100 nM	≤ 100 nM	Oc1cc(Cl)c(-c2noc(-c3cn4cc(C(F)(F)F)cc(Cl)c4n3)n2)cc1Cl [Example 191, 2,5-dichloro-4-{5-[8-chloro-6-(trifluoromethyl)imidazo[1,2-a]pyridin-2-yl]-1,2,4-oxadiazol-3-yl}phenol]
	100 to 500 nM	≤ 100 nM	CC(Cc1cc(Cl)c(-c2noc(-c3cn4cc(C(F)(F)F)cc(Cl)c4n3)n2)cc1F)C(=O)O (centres unmarked) [Example 203, 3-(5-chloro-4-{5-[8-chloro-6-(trifluoromethyl)imidazo[1,2-a]pyridin-2-yl]-1,2,4-oxadiazol-3-yl}-2-fluorophenyl)-2-methylpropanoic acid]
	≤ 100 nM	≤ 100 nM	NCC(O)COc1cc(Cl)c(-c2noc(-c3cn4cc(C(F)(F)F)cc(Cl)c4n3)n2)cc1F (centres unmarked) [Example 216, 1-amino-3-[(5-chloro-4-{5-[8-chloro-6-(trifluoromethyl)imidazo[1,2-a]pyridin-2-yl]-1,2,4-oxadiazol-3-yl}-2-fluorophenyl)oxy]propan-2-ol]
	100 to 500 nM	≤ 100 nM	O=C(O)CCc1ccc(-c2nc(-c3cn4cc(C(F)(F)F)cc(Cl)c4n3)no2)cc1Cl [Example 235, 3-(2-chloro-4-{3-[8-chloro-6-(trifluoromethyl)imidazo[1,2-a]pyridin-2-yl]-1,2,4-oxadiazol-5-yl}phenyl)propanoic acid]
	100 to 500 nM	≤ 100 nM	OCCOc1ccc(-c2nnc(-c3cn4cc(C(F)(F)F)cc(Cl)c4n3)s2)c(Cl)c1 [Example 243, 2-[(3-chloro-4-{5-[8-chloro-6-(trifluoromethyl)imidazo[1,2-a]pyridin-2-yl]-1,3,4-thiadiazol-2-yl}phenyl)oxy]ethanol]
	100 to 500 nM	≤ 100 nM	O=C(O)CCOc1ccc(-c2noc(-c3cn4cc(C(F)(F)F)cc(Cl)c4n3)n2)c(Cl)c1 [Example 255, 3-[(3-chloro-4-{5-[8-chloro-6-(trifluoromethyl)imidazo[1,2-a]pyridin-2-yl]-1,2,4-oxadiazol-3-yl}phenyl)oxy]propanoic acid]
	100 to 500 nM	≤ 100 nM	CC(CC(=O)O)c1ccc(-c2noc(-c3cn4cc(C(F)(F)F)cc(Br)c4n3)n2)c(Cl)c1 (centres unmarked) [Example 266, 3-(4-{5-[8-bromo-6-(trifluoromethyl)imidazo[1,2-a]pyridin-2-yl]-1,2,4-oxadiazol-3-yl}-3-chlorophenyl)butanoic acid]
	100 to 500 nM	≤ 100 nM	N#CC(CC(=O)O)c1ccc(-c2noc(-c3cn4cc(C(F)(F)F)cc(Cl)c4n3)n2)c(Cl)c1 (centres unmarked) [Example 267, 3-(3-chloro-4-{5-[8-chloro-6-(trifluoromethyl)imidazo[1,2-a]pyridin-2-yl]-1,2,4-oxadiazol-3-yl}phenyl)-3-cyanopropanoic acid]
	100 to 500 nM	≤ 100 nM	OCCC(O)c1ccc(-c2noc(-c3cn4cc(C(F)(F)F)cc(Cl)c4n3)n2)c(Cl)c1 (centres unmarked) [Example 272, 1-(3-chloro-4-{5-[8-chloro-6-(trifluoromethyl)imidazo[1,2-a]pyridin-2-yl]-1,2,4-oxadiazol-3-yl}phenyl)propane-1,3-diol]
	500 to 1000 nM	100 to 500 nM	Fc1ccc(-c2noc(-c3cn4cc(C(F)(F)F)cc(Cl)c4n3)n2)c(Cl)c1 [Example 274, 8-chloro-2-[3-(2-chloro-4-fluorophenyl)-1,2,4-oxadiazol-5-yl]-6-(trifluoromethyl)imidazo[1,2-a]pyridine]
	100 to 500 nM	≤ 100 nM	CS(=O)(=O)Cc1ccc(-c2noc(-c3cn4cc(C(F)(F)F)cc(Cl)c4n3)n2)c(Cl)c1 [Example 275, 8-chloro-2-(3-{2-chloro-4-[(methylsulfonyl)methyl]phenyl}-1,2,4-oxadiazol-5-yl)-6-(trifluoromethyl)imidazo[1,2-a]pyridine]
	≤ 100 nM	≤ 100 nM	O=C(O)CCc1cc(Cl)c(-c2nnc(-c3cn4cc(C(F)(F)F)cc(Cl)c4n3)o2)cc1F [Example 282, 3-(5-chloro-4-{5-[8-chloro-6-(trifluoromethyl)imidazo[1,2-a]pyridin-2-yl]-1,3,4-oxadiazol-2-yl}-2-fluorophenyl)propanoic acid]
	≤ 100 nM	≤ 100 nM	O=C(O)CCc1c(Cl)cc(-c2nc(-c3cn4cc(C(F)(F)F)cc(Cl)c4n3)no2)cc1Cl [Example 314, 3-(2,6-dichloro-4-{3-[8-chloro-6-(trifluoromethyl)imidazo[1,2-a]pyridin-2-yl]-1,2,4-oxadiazol-5-yl}phenyl)propanoic acid]
